Test [1] addresses T1, Replicative DNA helicase DnaB (Mycobacterium tuberculosis, UniProt P9WMR3).
T1 sequence (P9WMR3 whole entry): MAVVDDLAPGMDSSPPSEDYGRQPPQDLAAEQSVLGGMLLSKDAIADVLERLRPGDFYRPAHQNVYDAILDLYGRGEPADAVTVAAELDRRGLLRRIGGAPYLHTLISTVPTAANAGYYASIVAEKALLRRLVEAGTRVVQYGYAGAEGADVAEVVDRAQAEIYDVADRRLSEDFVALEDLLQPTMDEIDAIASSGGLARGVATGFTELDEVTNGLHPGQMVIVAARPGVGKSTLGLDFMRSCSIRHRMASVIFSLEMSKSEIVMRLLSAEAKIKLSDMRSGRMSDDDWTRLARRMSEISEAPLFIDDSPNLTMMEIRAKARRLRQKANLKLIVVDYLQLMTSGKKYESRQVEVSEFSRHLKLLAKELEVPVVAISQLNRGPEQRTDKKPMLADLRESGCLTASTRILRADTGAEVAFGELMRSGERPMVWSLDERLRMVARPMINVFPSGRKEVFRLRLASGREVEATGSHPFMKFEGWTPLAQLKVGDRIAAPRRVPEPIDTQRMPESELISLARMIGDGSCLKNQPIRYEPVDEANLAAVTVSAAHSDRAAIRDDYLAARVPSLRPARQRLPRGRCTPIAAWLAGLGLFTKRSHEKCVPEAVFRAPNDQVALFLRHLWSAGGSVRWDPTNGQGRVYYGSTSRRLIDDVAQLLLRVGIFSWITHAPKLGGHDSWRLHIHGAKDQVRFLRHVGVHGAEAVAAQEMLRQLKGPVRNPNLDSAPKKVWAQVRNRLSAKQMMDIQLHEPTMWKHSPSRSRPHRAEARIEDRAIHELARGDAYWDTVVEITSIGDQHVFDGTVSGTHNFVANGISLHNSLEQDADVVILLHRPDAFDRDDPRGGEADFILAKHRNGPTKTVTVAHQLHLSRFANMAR
Briefly: DnaB intein splicing inhibitors, dose response, biochemical, cell-free fluorescence (AID 449749). In kind it is functional.

The next test deals with T2, Protein RecA (Mycobacterium tuberculosis, UniProt P9WHJ3).
T2 sequence (P9WHJ3 whole entry): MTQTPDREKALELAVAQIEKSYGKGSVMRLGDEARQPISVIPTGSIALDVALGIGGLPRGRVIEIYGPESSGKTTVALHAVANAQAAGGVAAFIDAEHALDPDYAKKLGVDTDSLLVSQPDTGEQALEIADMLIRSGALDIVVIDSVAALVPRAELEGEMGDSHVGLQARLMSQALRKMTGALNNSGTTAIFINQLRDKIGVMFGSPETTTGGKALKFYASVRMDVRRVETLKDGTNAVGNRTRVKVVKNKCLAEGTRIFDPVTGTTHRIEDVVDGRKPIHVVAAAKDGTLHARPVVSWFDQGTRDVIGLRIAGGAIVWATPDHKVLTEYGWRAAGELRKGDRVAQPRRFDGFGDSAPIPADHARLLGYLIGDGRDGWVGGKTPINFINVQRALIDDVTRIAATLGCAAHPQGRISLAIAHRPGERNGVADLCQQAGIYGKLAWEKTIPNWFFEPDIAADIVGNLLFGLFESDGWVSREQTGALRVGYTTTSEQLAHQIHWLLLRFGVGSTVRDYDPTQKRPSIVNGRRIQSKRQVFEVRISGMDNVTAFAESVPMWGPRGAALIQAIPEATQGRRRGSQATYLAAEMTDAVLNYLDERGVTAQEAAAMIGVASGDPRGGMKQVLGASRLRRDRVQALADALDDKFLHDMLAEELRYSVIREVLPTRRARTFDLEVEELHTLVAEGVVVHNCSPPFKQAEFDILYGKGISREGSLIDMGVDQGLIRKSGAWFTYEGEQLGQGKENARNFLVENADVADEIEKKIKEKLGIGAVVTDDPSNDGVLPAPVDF
Briefly: Fluorescence Cell-Free Homogeneous Dose Retest to Identify Inhibitors of RecA-Intein Splicing Activity. [Related pubchem assays (depositor defined):AID2097, AID2223, AID489010, AID492950]. In kind it is functional.

Test [2] in a line: A549 cell cytotoxicity, dose response, cytotoxicity control, plate reader, cherry-pick, antagonist series (AID 743412). The class given is functional, cell-based.
Test [3] can be described thus: HepG2 cell cytotoxicity, dose response, cytotoxicity control, plate reader, cherry-pick, antagonist series (AID 743416). In kind it is functional, cell-based.
The target in test [4] is T3, Tyrosyl-DNA phosphodiesterase 2 (Homo sapiens, UniProt O95551).
T3 sequence (O95551 whole entry): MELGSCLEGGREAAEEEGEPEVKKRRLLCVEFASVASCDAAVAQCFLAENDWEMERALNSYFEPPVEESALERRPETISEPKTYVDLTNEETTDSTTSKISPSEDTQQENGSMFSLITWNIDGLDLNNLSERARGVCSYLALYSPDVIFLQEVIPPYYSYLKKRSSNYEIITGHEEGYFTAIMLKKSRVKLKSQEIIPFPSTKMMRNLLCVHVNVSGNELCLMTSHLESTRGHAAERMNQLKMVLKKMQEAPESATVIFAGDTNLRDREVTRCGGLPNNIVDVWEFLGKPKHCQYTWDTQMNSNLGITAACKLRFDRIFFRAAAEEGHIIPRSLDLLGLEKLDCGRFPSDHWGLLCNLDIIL
Briefly: human TDP2 enzyme inhibitors, dose response, biochemical, epi absorbance, IC50 (AID 743297).

Calls of active or inactive are those of the source. Cut-off read from the data, not from the text of the source, for most assays here: actives have a measured AC50 and inactives only a lower limit.

With `O=c1[nH]c(N2CCOCC2)cc2ccccc12`, in test [1], the AC50 (in general, the midpoint of the concentration-response curve, whichever way the signal moves) is > 120 µM (inactive). For the same compound, on Protein RecA, the EC50 (usually the concentration giving half of the maximal effect) was > 380 µM (inconclusive).

Consider `O=[N+]([O-])c1ccc(Sc2nc3ccccc3o2)c([N+](=O)[O-])c1`, for which the values for the AC50 in test [1], in test [2] and in test [3] were 2.05 µM (active), 6.63 µM (active) and 6.16 µM (active), respectively. For the same compound, the EC50 on Protein RecA was 1.5 µM (active).

As to `CCC(COC)Oc1cc(NCc2ccccc2)c2ncn(C(C)C)c2c1` (stereo not given), the AC50 is 26.1 µM (active) in test [2] and 19.6 µM (active) in test [3]. Further, in test [4], the IC50 (commonly the point on the concentration scale where inhibition reaches its midpoint) was > 42.8 µM (inactive).

Regarding `O=C1c2ccccc2C(=O)C12OC2c1cccc2ccccc12` (stereo not given), the IC50 in test [4] was 5.07 µM (active).

The values above are taken from ChEMBL document CHEMBL1201862, “PubChem BioAssay data set” (2004).
